Reference: patent publication US20240245658A1, “TAAR1 AND SEROTONIN MODULATORS, AND PHARMACEUTICAL COMPOSITIONS, AND METHODS OF USE THEREOF” (Sunovion Pharmaceuticals Inc., priority 2021, published 2024)
Where two headings read alike, the source gives them in different places.

Assays:
Assay type in all cases: cell-based
human 5-HT7 receptor = molecular target: T1, human 5-HT7 receptor (Homo sapiens, UniProt P34969); test: 5HT7 Antagonism Assay (Euroscreen FAST-0499C), cAMP HTRF; conditions: CHO-K1 cells expressing human 5-HT7, reference agonist at EC80, cAMP HTRF
T1 construct: host or cells: CHO-K1
T1 sequence (P34969 whole entry): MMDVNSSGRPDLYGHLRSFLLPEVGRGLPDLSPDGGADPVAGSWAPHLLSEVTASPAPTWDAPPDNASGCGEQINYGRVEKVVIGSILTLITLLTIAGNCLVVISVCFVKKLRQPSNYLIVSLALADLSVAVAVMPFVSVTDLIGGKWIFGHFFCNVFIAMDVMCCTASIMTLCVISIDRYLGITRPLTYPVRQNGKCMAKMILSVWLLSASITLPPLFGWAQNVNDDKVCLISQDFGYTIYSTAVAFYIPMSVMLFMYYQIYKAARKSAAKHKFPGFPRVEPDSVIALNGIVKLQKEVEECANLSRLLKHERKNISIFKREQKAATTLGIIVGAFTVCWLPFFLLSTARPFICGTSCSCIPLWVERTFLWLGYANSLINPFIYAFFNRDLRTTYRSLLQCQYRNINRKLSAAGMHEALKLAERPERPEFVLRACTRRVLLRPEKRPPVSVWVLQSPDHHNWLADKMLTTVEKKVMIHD
Procedure: 5HT7 Antagonism Assay Protocol (Euroscreen FAST-0499C)
CHO-K1 cells expressing the human 5-HT7 receptor, grown prior to the test in media without antibiotic, were detached by gentle flushing with PBS-EDTA (5 mM EDTA), recovered by centrifugation and resuspended in assay buffer (Krebs-Ringer HEPES buffer: 5 mM KCl, 1.25 mM MgSO4, 124 mM NaCl, 25 mM HEPES, 13.3 mM Glucose, 1.25 mM KH2PO4, 1.45 mM CaCl2), 0.5 g/l BSA, supplemented with 1 mM IBMX).
Dose response curves were performed in parallel with reference compounds (e.g., 5-carboxamidotryptamine (5-CT)).
For antagonist testing in a 384 well plate: 5 μl of cells (3000 cells) were mixed with 5 μl of a mix of test compound and reference agonist (for a final assay concentration corresponding to its EC80) diluted in assay buffer. The plates were then incubated for about 30 minutes at about room temperature. After addition of the lysis buffer containing cAMP-d2 and anti-cAMP cryptate detection reagents, plates were incubated for about 1 hour at about room temperature, and fluorescence ratios were measured according to the manufacturer's specifications (HTRF kit: cAMP Gs dynamic kit, Cisbio Bioassays, 62AM4PEJ).
(§1) Compounds were tested at the following nanomolar concentrations, in duplicate: 0.3 nM, 1 nM, 3 nM, 10 nM, 30 nM, 100 nM, 300 nM, 1,000 nM, 3,000 nM, and 10,000 nM.

human TAAR1 receptors = molecular target: T2, human TAAR1 receptors (Homo sapiens, UniProt Q96RJ0); test: TAAR1 Agonism Assay: cAMP HTRF assay for Gs coupled receptor TAAR1 (Euroscreen FAST-0987C); conditions: CHO-K1 cells expressing human TAAR1, cAMP HTRF
T2 construct: host or cells: CHO-K1
T2 sequence (Q96RJ0 1-339): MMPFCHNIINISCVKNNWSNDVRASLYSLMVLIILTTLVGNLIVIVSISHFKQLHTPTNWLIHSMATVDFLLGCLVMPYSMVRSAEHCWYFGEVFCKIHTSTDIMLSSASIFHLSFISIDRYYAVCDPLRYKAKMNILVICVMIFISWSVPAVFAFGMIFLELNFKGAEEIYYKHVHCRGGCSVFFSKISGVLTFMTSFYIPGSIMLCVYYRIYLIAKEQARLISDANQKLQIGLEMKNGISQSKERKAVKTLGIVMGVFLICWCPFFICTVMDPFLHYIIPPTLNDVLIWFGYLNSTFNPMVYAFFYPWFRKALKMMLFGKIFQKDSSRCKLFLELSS
Procedure: Dose response curves were performed in parallel with the reference compound, tyramine.
For the TAAR1 agonist test (performed in a 384 well plate): 5 μl of cells (about 3,000 cells) were mixed with 5 μl of the test compound diluted in assay buffer and then incubated for about 30 minutes at about room temperature. After addition of the lysis buffer containing cAMP-d2 and anti-cAMP cryptate detection reagents, plates were incubated for about a 1-hour incubation at about room temperature, and fluorescence ratios were measured according to the manufacturer specifications, with the HTRF (Homogeneous Time Resolved Fluorescence) kit (cAMP Gs dynamic kit, Cisbio Bioassays, 62AM4PEJ).
as §1

human 5-HT2A receptor = molecular target: T3, human 5-HT2A receptor (Homo sapiens, UniProt P28223); test: 5HT2A Antagonism Assay (Euroscreen FAST-05051), IP-One HTRF
T3 construct: host or cells: CHO-K1
T3 sequence (P28223 whole entry): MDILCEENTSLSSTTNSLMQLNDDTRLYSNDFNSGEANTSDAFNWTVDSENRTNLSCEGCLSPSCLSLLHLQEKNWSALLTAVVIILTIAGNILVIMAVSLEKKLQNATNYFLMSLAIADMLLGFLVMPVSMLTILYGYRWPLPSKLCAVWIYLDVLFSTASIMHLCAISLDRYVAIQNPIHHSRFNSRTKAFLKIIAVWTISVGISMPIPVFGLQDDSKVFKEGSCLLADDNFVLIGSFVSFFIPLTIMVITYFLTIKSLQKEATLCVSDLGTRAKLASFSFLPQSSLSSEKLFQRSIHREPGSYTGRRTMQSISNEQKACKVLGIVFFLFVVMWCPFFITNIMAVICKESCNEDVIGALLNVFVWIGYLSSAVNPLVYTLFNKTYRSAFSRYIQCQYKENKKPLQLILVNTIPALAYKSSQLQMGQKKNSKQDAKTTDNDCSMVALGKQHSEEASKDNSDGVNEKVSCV
Procedure: 5HT2A Antagonism Assay Protocol (Euroscreen FAST-05051)
CHO-K1 cells expressing the human 5-HT2A receptor grown to mid-log phase in culture media without antibiotics, were detached with PBS-EDTA, centrifuged, and resuspended in the IP-One Gq kit (Cisbio Bioassays, 62IPAPEC) stimulation buffer.
For antagonist testing in a 384 well plate: 5 μl of cells (20,000 cells) were mixed with 5 μl of a mix of test compound and reference agonist (for a final assay concentration corresponding to its EC80) diluted in stimulation buffer. The plate was incubated for 60 minutes at 37° C. in a humidified atmosphere of 95% air with 5% CO2, then 5 μL of IP1-d2 and anti-IP1 cryptate detection reagents were added to each well, the plates were incubated for about 1 hour at about room temperature. Fluorescence ratios are measured according to the manufacturer's specification (IP-One Gq kit (Cisbio Bioassays, 62IPAPEC).
Dose response curves were performed in parallel with reference compounds (e.g., α-methyl-5-HT. Compounds were tested at the following nanomolar concentrations, in duplicate: 0.3 nM, 1 nM, 3 nM, 10 nM, 30 nM, 100 nM, 300 nM, 1,000 nM, 3,000 nM, and 10,000 nM

[1] = 5-HT2A (IC50), CHO-K1 cells expressing human 5-HT2A, reference agonist at EC80, IP-One

Row | Compound | EC50 (human TAAR1 receptors) [µM] | other results
1 | NCC1Cc2ccccc2Oc2cc(F)ccc21 (single isomer, unassigned) [Compound 1, (R*)-(7-fluoro-10,11-dihydrodibenzo[b,f]oxepin-10-yl)methanamine] | 1 to 10 | IC50 (human 5-HT7 receptor): ≥ 10 µM; IC50 (human 5-HT2A receptor; [1]): < 1 µM
2 | NCC1Cc2ccccc2Oc2cc(F)ccc21 (single isomer, unassigned) [Compound 2, (S*)-(7-fluoro-10,11-dihydrodibenzo[b,f]oxepin-10-yl)methanamine] | < 1 | IC50 (human 5-HT7 receptor): ≥ 10 µM; IC50 (human 5-HT2A receptor; read-out: 5-HT2A (IC50), CHO-K1 cells expressing human 5-HT2A, reference agonist at EC80, IP-One): < 1 µM
3 | CNCC1Cc2ccccc2Oc2cc(F)ccc21 (single isomer, unassigned) [Compound 3, (R*)-1-(7-fluoro-10,11-dihydrodibenzo[b,f]oxepin-10-yl)-N-methylmethanamine] | > 10 | IC50 (human 5-HT7 receptor): 1 to 10 µM; IC50 (human 5-HT2A receptor; [1]): < 1 µM
4 | CNCC1Cc2ncccc2Oc2cc(F)ccc21 (single isomer, unassigned) [Compound 33, (R*)-1-(7-fluoro-10,11-dihydrobenzo[6,7]oxepino[3,2-b]pyridin-10-yl)-N-methylmethanamine] | > 10 | 
5 | CNCC1Cc2ncccc2Oc2cc(F)ccc21 (single isomer, unassigned) [Compound 34, (S*)-1-(7-fluoro-10,11-dihydrobenzo[6,7]oxepino[3,2-b]pyridin-10-yl)-N-methylmethanamine] | < 1 | 
6 | NCC1Cc2ncccc2Oc2cc(F)ccc21 (single isomer, unassigned) [Compound 35, (R*)-(7-fluoro-10,11-dihydrobenzo[6,7]oxepino[3,2-b]pyridin-10-yl)methanamine] | 1 to 10 | 
7 | CNCC1Cc2ncc(F)cc2Oc2ccccc21 (single isomer, unassigned) [Compound 37, (R*)-1-(3-fluoro-10,11-dihydrobenzo[6,7]oxepino[3,2-b]pyridin-10-yl)-N-methylmethanamine] | > 10 | 
8 | NCC1Cc2ccc(F)cc2Oc2ccccc21 (single isomer, unassigned) [Compound 88, (R*)-(3-fluoro-10,11-dihydrodibenzo[b,f]oxepin-10-yl)methanamine] | 1 to 10 | 
9 | NCC1Cc2ccccc2Oc2ccc(F)cc21 (single isomer, unassigned) [Compound 93, (S*)-(8-fluoro-10,11-dihydrodibenzo[b,f]oxepin-10-yl)methanamine] | 1 to 10 | 
10 | NCC1Cc2cc(F)ccc2Oc2ccccc21 (single isomer, unassigned) [Compound 97, (S*)-(2-fluoro-10,11-dihydrodibenzo[b,f]oxepin-10-yl)methanamine] | > 10 | 
11 | CNCC1Cc2cc(F)ccc2Oc2ccccc21 (single isomer, unassigned) [Compound 99, (S*)-(2-fluoro-10,11-dihydrodibenzo[b,f]oxepin-10-yl)-N-methylmethanamine] | > 10 | 
12 | CNCC1Cc2ccccc2Oc2c(F)cccc21 (single isomer, unassigned) [Compound 103, (S*)-(6-fluoro-10,11-dihydrodibenzo[b,f]oxepin-10-yl)-N-methylmethanamine] | 1 to 10 | 
13 | CCNCC1Cc2ccccc2Oc2cccnc21 (single isomer, unassigned) [Compound 108, (S*)-1-(10,11-dihydrobenzo[6,7]oxepino[3,2-b]pyridin-11-yl)-N-ethylmethanamine] | < 1 | 
14 | CN(C)CC1Cc2ccccc2Oc2cccnc21 (single isomer, unassigned) [Compound 110, (S*)-1-(10,11-dihydrobenzo[6,7]oxepino[3,2-b]pyridin-11-yl)-N,N-dimethylmethanamine] | > 10 | 
15 | CNCC1Cc2c(F)cccc2Oc2cccnc21 (single isomer, unassigned) [Compound 139, (R*)-1-(9-fluoro-10,11-dihydrobenzo[6,7]oxepino[3,2-b]pyridin-11-yl)-N-methylmethanamine] | 1 to 10 | 
16 | CNCC1Cc2c(C)cccc2Oc2cccnc21 (single isomer, unassigned) [Compound 142, (S*)-(9-methyl-10,11-dihydrobenzo[6,7]oxepino[3,2-b]pyridin-11-yl)-N-methylmethanamine] | 1 to 10 | 
17 | CNCC1Cc2c(Cl)cccc2Oc2cccnc21 (single isomer, unassigned) [Compound 146, (S*)-(9-chloro-10,11-dihydrobenzo[6,7]oxepino[3,2-b]pyridin-11-yl)-N-methylmethanamine] | > 10 | 
18 | NCC1Cc2cc(Br)ccc2Oc2cccnc21 (single isomer, unassigned) [Compound 148, (R*)-(8-bromo-10,11-dihydrobenzo[6,7]oxepino[3,2-b]pyridin-11-yl)methanamine] | < 1 | 
19 | NCC1Cc2ncccc2Oc2cccc(F)c21 (single isomer, unassigned) [Compound 155, (R*)-(9-fluoro-10,11-dihydrobenzo[6,7]oxepino[3,2-b]pyridin-10-yl)methanamine] | 1 to 10 | 
20 | CNCC1Cc2ncccc2Oc2cccc(F)c21 (single isomer, unassigned) [Compound 157, (R*)-(9-fluoro-10,11-dihydrobenzo[6,7]oxepino[3,2-b]pyridin-10-yl)-N-methylmethanamine] | > 10 | 
21 | NCC1Cc2ncccc2Oc2ccc(Cl)cc21 (single isomer, unassigned) [Compound 168, (S*)-(8-chloro-10,11-dihydrobenzo[6,7]oxepino[3,2-b]pyridin-10-yl)methanamine] | 1 to 10 | 
22 | CNCC1Cc2ncccc2Oc2ccc(Cl)cc21 (single isomer, unassigned) [Compound 169, (R*)-1-(8-chloro-10,11-dihydrobenzo[6,7]oxepino[3,2-b]pyridin-10-yl)-N-methylmethanamine] | > 10 | 
23 | NCC1Cc2ncccc2Oc2c(F)cccc21 (single isomer, unassigned) [Compound 175, (R*)-(6-fluoro-10,11-dihydrobenzo[6,7]oxepino[3,2-b]pyridin-10-yl)methanamine] | 1 to 10 | 
24 | CNCC1Cc2ncccc2Oc2c(F)cccc21 (single isomer, unassigned) [Compound 177, (R*)-1-(6-fluoro-10,11-dihydrobenzo[6,7]oxepino[3,2-b]pyridin-10-yl)-N-methylmethanamine] | > 10 | 
25 | CNCC1Cc2ncccc2Oc2c(F)cccc21 (single isomer, unassigned) [Compound 178, (S*)-1-(6-fluoro-10,11-dihydrobenzo[6,7]oxepino[3,2-b]pyridin-10-yl)-N-methylmethanamine] | < 1 | 
26 | C[C@H]1c2ccccc2Oc2cccnc2[C@H]1CN (stereo in doubt) [Compound 113, ((10R*,11R*)-10-methyl-10,11-dihydrobenzo[6,7]oxepino[3,2-b]pyridin-11-yl)methanamine] | > 10 | 
27 | CNC[C@@H]1c2ncccc2Oc2ccccc2[C@@H]1C (stereo in doubt) [Compound 117, ((10R*,11R*)-10-methyl-10,11-dihydrobenzo[6,7]oxepino[3,2-b]pyridin-11-yl)-N-methylmethanamine] | > 10 | 
